From US12465050B2, “Compositions comprising a pyridine carboxylate herbicide and protoporphyrinogen oxidase (protox) inhibitor herbicides” (priority 2018, dated 2025)

Key:
Assay type in all cases: in vivo
[1] = test system: Cirsium arvense (Canadian thistle); assay: Greenhouse postemergence herbicidal effect on CIRAR
Source text: (§1) Greenhouse Trial Methodology—Evaluation of Postemergence Herbicidal Effect
(§2) Seeds of the desired test plant species were planted in a 90:10% v/v (volume/volume) mixture of PRO-MIX® BX (Premier Tech Horticulture, Quakertown, Pa., USA) and PROFILE® GREENS GRADE™ (Profile Products LLC, Buffalo Grove, Ill., USA) planting mixture, which typically has a pH of 5.2 to 6.2 and an organic matter content of at least 50 percent, in plastic pots with a surface area of 103.2 square centimeters (cm^2). In some aspects or embodiments, to help ensure good germination and healthy plants, a fungicide treatment and/or other chemical or physical treatment was applied. The plants were grown for 7-36 days (d) in a greenhouse with an approximate 14-hour (h) photoperiod which was maintained at about 23° C. during the day and 22° C. during the night. Nutrients and water were added on a regular basis and supplemental lighting was provided with overhead metal halide 1000-Watt lamps as necessary. The plants were employed for testing when they reached the second or third true leaf stage.
(§3) Emulsifiable concentrates of each of each pyridine carboxylate herbicide (Compound A or Compound B) were prepared at 100 grams acid equivalent per liter (g ae/L). The emulsifiable concentrates also included a safener, cloquintocet mexyl, at 120 grams active ingredient per liter (g ai/L). An aliquot of each emulsifiable concentrate was placed in a 25 mL glass vial and diluted with an aqueous mixture of 1.25% (v/v) ACTIROB® B esterified rapeseed oil (Bayer Crop Science, Research Triangle Park, N.C., USA) or MSO® Concentrate with LECI-TECH® methylated soybean oil (Loveland Products, Loveland, Colo., USA) to obtain concentrated stock solutions at the highest application rate for each herbicide, based upon a 12 milliliter (mL) application volume at a rate of 187 liters per hectare (L/ha). The concentrated stock solutions were further diluted with an aqueous mixture of 1.25% v/v ACTIROB® B or MSO® Concentrate with LECI-TECH® to obtain stock solutions at reduced application rates for each herbicide. Spray solutions of the herbicide combinations (Compound A or Compound B plus PROTOX inhibitor herbicide) were prepared by adding weighed amounts or aliquots of the PROTOX inhibitor herbicides to the stock solutions of Compound A or Compound B to form 12-mL spray solutions in two-way combinations.
(§4) The spray solutions were applied to the plant material with an overhead Mandel track sprayer equipped with 8002E nozzles calibrated to deliver 187 L/ha over an application area of 0.503 square meters (m^2) at a spray height of 18 inches (43 centimeters (cm)) above the average plant canopy. Control plants were sprayed in the same manner with the solvent blank. All pyridine carboxylate herbicide (component a) application rates are given as “g ae/ha” and all PROTOX inhibitor herbicide (component b) application rates are given as “g ai/ha.”
(§5) The treated plants and control plants were placed in a greenhouse as described above and watered by sub-irrigation to prevent wash-off of the test compounds. After 20-22 d, the condition of the test plants as compared with that of the control plants was determined visually and scored on a scale of 0 to 100 percent where 0 corresponds to no injury and 100 corresponds to complete kill.

[2] = test system: Brassica napus (spring rape); assay: Greenhouse postemergence herbicidal effect on BRSNN
Source text: as §1, §2, §3, §4, §5

[3] = test system: Capsella bursa-pastoris (shepherd's purse); assay: Greenhouse postemergence herbicidal effect on CAPBP
Source text: as §1, §2
as §3, with “combinations. […]” for “combinations.”
as §5

[4] = test system: Cyperus esculentus (nutsedge); assay: Greenhouse postemergence herbicidal effect on CYPES
Source text: as §1, §2
(§6) Emulsifiable concentrates of each of each pyridine carboxylate herbicide (Compound A or Compound B) were prepared at 100 grams acid equivalent per liter (g ae/L). The emulsifiable concentrates also included a safener, cloquintocet mexyl, at 120 grams active ingredient per liter (g ai/L). […]
as §5

[5] = test system: Amaranthus retroflexus (pigweed); assay: Greenhouse postemergence herbicidal effect on AMARE
Source text: as §1, §2, §3, §4, §5

[6] = test system: Digitaria sanguinalis (large crabgrass); assay: Greenhouse postemergence herbicidal effect on DIGSA
Source text: as §1, §2, §6, §5

[7] = test system: Avena fatua (wild oat); assay: Greenhouse postemergence herbicidal effect on AVEFA
Source text: as §1, §2, §6, §5

[8] = test system: Salsola kali (Russian thistle); assay: Greenhouse postemergence herbicidal effect on SASKR
Source text: as §1, §2, §3, §4, §5

[9] = test system: Triticum aestivum (spring wheat); assay: Greenhouse postemergence phytotoxicity on crop TRZAS
Source text: as §1, §2, §3, §4, §5

[10] = test system: Veronica hederifolia (ivy-leaved speedwell); assay: Greenhouse postemergence herbicidal effect on VERHE
Source text: as §1, §2
as §3, with “combinations. […]” for “combinations.”
as §5

[11] = test system: Brassica napus (winter rape); assay: Greenhouse postemergence herbicidal effect on BRSNW
Source text: as §1, §2, §3, §4, §5

[12] = test system: Stellaria media (chickweed); assay: Greenhouse postemergence herbicidal effect on STEME
Source text: as §1, §2
as §3, with “combinations. […]” for “combinations.”
as §5

[13] = test system: Veronica persica (Persian speedwell); assay: Greenhouse postemergence herbicidal effect on VERPE
Source text: as §1, §2
as §3, with “combinations. […]” for “combinations.”
as §5

[14] = test system: Matricaria inodora (scentless chamomile); assay: Greenhouse postemergence herbicidal effect on MATIN
Source text: as §1, §2
as §3, with “combinations. […]” for “combinations.”
as §5

[15] = test system: Setaria faberi (giant foxtail); assay: Greenhouse postemergence herbicidal effect on SETFA
Source text: as §1, §2, §3, §4, §5

[16] = Compound A 7.5, Oxyfluorfen 0 g/ha
[17] = Compound A 7.5, Pyraflufen-ethyl 0 g/ha
[18] = Compound A 10, Oxyfluorfen 0 g/ha
[19] = Compound A 10, Pyraflufen-ethyl 0 g/ha
[20] = Compound A 15, Oxyfluorfen 0 g/ha
[21] = Compound A 7.5, Pyraclonil 0 g/ha
[22] = Compound A 7.5, Saflufenacil 0 g/ha
[23] = Compound A 10, Pyraclonil 0 g/ha
[24] = Compound A 10, Saflufenacil 0 g/ha
[25] = Compound A 7.5, Carfentrazone-ethyl 0 g/ha
[26] = Compound A 10, Carfentrazone-ethyl 0 g/ha

**Q.** What does the source list for `N#CCOC(=O)c1nc(-c2ccc3cc[nH]c3c2F)c(F)c(N)c1Cl` [Compound A, cyanomethyl 4-amino-3-chloro-5-fluoro-6-(7-fluoro-1H-indol-6-yl)pyridine-2-carboxylate]?
**A.** % visual injury, Obs ([1]; Compound A 7.5, Bifenox 0 g/ha): 70%; % visual injury, Obs [1, 16]: 50%; % visual injury, Obs [1, 17]: 40%; % visual injury, Obs ([1]; Compound A 10, Bifenox 0 g/ha): 68%; % visual injury, Obs [1, 18]: 63%; % visual injury, Obs [1, 19]: 55%; % visual injury, Obs [1, 20]: 63%; % visual injury, Obs ([2]; Compound A 7.5, Bifenox 0 g/ha): 23%; % visual injury, Obs [2, 21]: 55%; % visual injury, Obs [2, 22]: 65%; % visual injury, Obs ([2]; Compound A 10, Bifenox 0 g/ha): 45%; % visual injury, Obs [2, 23]: 60%; % visual injury, Obs [2, 24]: 65%; % visual injury, Obs [3, 16]: 45%; % visual injury, Obs [3, 18]: 55%; % visual injury, Obs [3, 20]: 55%; % visual injury, Obs [4, 22]: 30%; % visual injury, Obs [4, 24]: 8%; % visual injury, Obs [5, 17]: 90%; % visual injury, Obs [5, 22]: 88%; % visual injury, Obs [5, 19]: 85%; % visual injury, Obs [5, 24]: 88%; % visual injury, Obs ([6]; Compound A 7.5, Bifenox 0 g/ha): 13%; % visual injury, Obs ([6]; Compound A 10, Bifenox 0 g/ha): 25%; % visual injury, Obs ([7]; Compound A 7.5, Bifenox 0 g/ha): 0%; % visual injury, Obs ([7]; Compound A 10, Bifenox 0 g/ha): 0%; % visual injury, Obs [8, 25]: 45%; % visual injury, Obs [8, 16]: 50%; % visual injury, Obs [8, 21]: 45%; % visual injury, Obs [8, 17]: 60%; % visual injury, Obs [8, 26]: 60%; % visual injury, Obs [8, 18]: 60%; % visual injury, Obs [8, 23]: 60%; % visual injury, Obs [8, 19]: 63%; % visual injury, Obs [8, 20]: 63%; % visual injury, Obs [9, 25]: 0%; % visual injury, Obs [9, 16]: 0%; % visual injury, Obs [9, 21]: 0%; % visual injury, Obs [9, 17]: 0%; % visual injury, Obs [9, 22]: 5%; % visual injury, Obs [9, 26]: 0%; % visual injury, Obs [9, 18]: 0%; % visual injury, Obs [9, 23]: 0%; % visual injury, Obs [9, 19]: 0%; % visual injury, Obs [9, 24]: 3%; % visual injury, Obs [9, 20]: 0%; % visual injury, Obs [10, 16]: 68%; % visual injury, Obs [10, 18]: 73%; % visual injury, Obs [10, 20]: 75%; % visual injury, Obs [11, 16]: 60%; % visual injury, Obs [11, 17]: 35%; % visual injury, Obs [11, 18]: 65%; % visual injury, Obs [11, 19]: 40%; % visual injury, Obs [11, 20]: 73%; % visual injury, Obs [12, 16]: 85%; % visual injury, Obs [12, 18]: 88%; % visual injury, Obs [12, 20]: 89%; % visual injury, Obs [13, 16]: 78%; % visual injury, Obs [13, 18]: 90%; % visual injury, Obs [13, 20]: 93%; % visual injury, Obs [14, 16]: 55%; % visual injury, Obs [14, 18]: 60%; % visual injury, Obs [14, 20]: 83%; % visual injury, Obs ([15]; Compound A 7.5, Bifenox 0 g/ha): 60%; % visual injury, Obs [15, 22]: 78%; % visual injury, Obs ([15]; Compound A 10, Bifenox 0 g/ha): 78%; % visual injury, Obs [15, 24]: 80%
